Results reported in patent EP4667482A1, “SALT OF DIPEPTIDE COMPOUND, PREPARATION METHOD THEREFOR, AND USE THEREOF” (Zhejiang Huahai Pharmaceutical Co., Ltd., priority 2023, dated 2024).
≈ marks a conversion by molar mass, not a printed value. Structures can show the parent of a compound that is named as a salt. Where two headings read alike, the source gives them in different places.

Tests used:
Solubility determination = assay type: physicochemical; conditions: for aqueous solubility: water, result in words
[1] = tested on: Rats model of deep vein thrombosis; assay: Rat model of deep vein thrombosis (thrombus weight); assay type: in vivo, SD rats
From the text: Experimental animals: SD rats (body weight 220 to 250 g, sex: male)
The thrombus was removed and weighed.

[2] = Blood drug level in the rat deep vein thrombosis model
Protocol: Preparation of solution: An appropriate amount of Form I was weighed, dissolved in a vehicle (0.5% (W/V) Natrosol™ 250 HX solution containing 0.1% (W/V) L(+)-tartaric acid) to formulate into the required concentration and then stirred uniformly, so that the drug was administered according to the predetermined dose.
Procedure: Rats were acclimatized for 3 days and randomly divided into three groups: model group, positive control group/subject group and bridging group, with 8 to 10 rats in each group. […] Rats in each group were anesthetized with urethane (20%, 5 mL/kg) via intraperitoneal injection. The abdominal cavity was exposed, the vena cava was bluntly separated, and two surgical sutures of 8 to 10 cm in length were placed under the blood vessels, both 1 cm apart. When the modeling time of each group was reached, rabbit thromboplastin (0.02 mg/kg) was injected into the left femoral vein, and the two sutures were knotted 10 s later, and the knotted portion of the suture was cut with ophthalmic scissors after 1 h. The thrombus was removed and weighed.

[3] = Moisture adsorption / hygroscopicity (DVS); assay type: physicochemical
[4] = Accelerated stability test at 25 ± 2 °C, 60 ± 5% humidity; assay type: physicochemical
Protocol: The accelerated stability test data of the Form I at T = 25 ± 2 °C, 60 ± 5% humidity are as follows: […]

[5] = Protocol: Experimental animals: SD rats (body weight 200 to 300 g, sex: half of male and half of female)
The doses of 5, 10 and 20 mg/kg were administered by gavage, and blood was collected from the jugular vein at 5 min, 10 min, 20 min, 30 min, 1 h, 2 h, 4 h, 6 h, 8 h, 12 h and 24 h after the administration of the drug, processed, and analyzed for blood drug level by LC-MS/MS.
Data were processed using Phoenix WinNonlin 6.4 non-compartmental model to calculate the pharmacokinetic parameters of rats after drug administration, including t1/2, AUC0-t, AUC0-∞, Cl/F or Clss/F or Cl, Vz/F or Vss, MRT, Cmax, C5min, Tmax, and Cmin, Cavg, and AUC0-τ for multiple administrations to reach steady state, etc.

[6] = 0.1 mg/kg/h, intravenous infusion

## CCCCCCOC(=O)NC(=N)c1ccc(CNC(=O)[C@@H]2CCCN2C(=O)[C@@H](CC(C)C)NCC(=O)OCC)cc1
Solubility determination
  aqueous solubility: insoluble in water

## CC(C)C[C@@H](NCC(=O)O)C(=O)N1CCC[C@H]1C(=O)NCc1ccc(C(=N)N)cc1 [Compound V]
[1]; [6]
  Thrombosis inhibition rate (%): 48.2%
  Thrombus weight: 36.8 ± 6.6 mg
[1]; intravenous infusion of 0.1 mg/kg/h in rats
  antithrombotic effect compared with oral administration of 5 mg/kg Form I: comparable
[2]; intravenous infusion of 0.1 mg/kg/h compound V
  Blood drug level: 174.2 ± 51.8 ng/mL

## CCCCCCOC(=O)N=C(N)c1ccc(NCc2nc3cc(C(=O)N(CCC(=O)OCC)c4ccccn4)ccc3n2C)cc1 [Dabigatran etexilate, reference compound]
[1]; 5 mg/kg, oral gavage
  Thrombosis inhibition rate (%): 69.9%
  Thrombus weight: 21.4 ± 8.2 mg

## CCCCCCOC(=O)NC(=N)c1ccc(CNC(=O)[C@@H]2CCCN2C(=O)[C@@H](CC(C)C)NCC(=O)OCC)cc1 [Form I]
[3]; 80% RH
  water absorption (DVS): 28.8%
[3]; 90% humidity
  water absorption (DVS): 49.9%
[3]; after DVS test
  solid form after DVS test: converted to amorphous form
[3]; high humidity
  behaviour of the sample at high humidity (DVS): undergoes deliquescence
[3]; result in words
  Hygroscopicity: Hygroscopic
Solubility determination; AC (Acetic acid)
  Solubility: >250 mg/mL
Solubility determination; ACN
  Solubility: >250 mg/mL
Solubility determination; DMSO
  Solubility: >250 mg/mL
Solubility determination; Diox
  Solubility: ~125 mg/mL (≈ 218 mM)
Solubility determination; EA
  Solubility: <0.3 mg/mL
Solubility determination; EtOH
  Solubility: >250 mg/mL
Solubility determination; Hept
  Solubility: <0.3 mg/mL
Solubility determination; IPA
  Solubility: ~167 mg/mL (≈ 291 mM)
Solubility determination; MEK
  Solubility: ~1.6 mg/mL (≈ 2.79 mM)
Solubility determination; MTBE
  Solubility: <0.3 mg/mL
Solubility determination; NBA
  Solubility: ~167 mg/mL (≈ 291 mM)
Solubility determination; THF
  Solubility: ~11.1 mg/mL (≈ 19.3 mM)
Solubility determination; Tol
  Solubility: <0.3 mg/mL
Solubility determination; Water
  Solubility: >250 mg/mL
Solubility determination; acetonitrile and dichloromethane
  Solubility: readily soluble
Solubility determination; buffer solutions with different pH values (1.2 to 13.0)
  Solubility: Highly soluble
Solubility determination; n-heptane and N, N-diisopropyl ethylamine
  Solubility: almost insoluble or insoluble
[4]; 0 month
  Content (HPLC): 99.6%
  Hydrolyzed impurities: 0.19%
  Moisture: 0.4%
  Other individual impurities: <RL(0.05%)
  Total impurities: 0.42%
[4]; 1 month
  Content (HPLC): 99.3%
  Hydrolyzed impurities: 0.27%
  Moisture: 0.5%
  Other individual impurities: <RL(0.05%)
  Total impurities: 0.54%
[4]; 2 months
  Content (HPLC): 100.3%
  Hydrolyzed impurities: 0.28%
  Moisture: 0.3%
  Other individual impurities: <RL(0.05%)
  Total impurities: 0.56%
[4]; 3 months
  Content (HPLC): 100.3%
  Hydrolyzed impurities: 0.45%
  Moisture: 0.4%
  Other individual impurities: <RL(0.05%)
  Total impurities: 0.72%
[4]; 6 months
  Content (HPLC): 99.6%
  Hydrolyzed impurities: 0.51%
  Moisture: 0.3%
  Other individual impurities: <RL(0.05%)
  Total impurities: 1.02%
[1]; 2.5 mg/kg, oral gavage
  Thrombosis inhibition rate (%): 27.0%
  Thrombus weight: 51.9 ± 8.3 mg
[1]; 5 mg/kg, oral gavage
  Thrombosis inhibition rate (%): 54.7%
  Thrombus weight: 32.1 ± 5.7 mg
[1]; 10 mg/kg, oral gavage
  Thrombus weight: 21.3 ± 5.1 mg
[1]; 20 mg/kg, oral gavage
  Thrombosis inhibition rate (%): 79.7%
  Thrombus weight: 14.4 ± 3.6 mg
[1]; at the same dose
  antithrombotic efficacy compared with dabigatran etexilate: basically equivalent
[5]; gavage 5 mg/kg, Female
  AUC0-t (h·ng/mL): 850+226 h·ng/mL
  AUC0-∞: 854 ± 224 ng·h/mL
  Cl/F: 104 ± 33 mL/min/kg
  Cmax: 522 ± 170 ng/mL
  MRT0-t: 1.6 ± 0.34 h
  MRT0-∞ (h): 1.7+0.38 h
  Tmax: 0.59 ± 0.29 h
  V2/F: 13.9 ± 6.75 L/kg
  t1/2: 1.5 ± 0.26 h
[5]; gavage 5 mg/kg, Male
  AUC0-t: 604 ± 182 ng·h/mL
  AUC0-∞: 606 ± 181 ng·h/mL
  Cl/F: 147 ± 41.7 mL/min/kg
  Cmax: 344 ± 163 ng/mL
  MRT0-t: 1.6 ± 0.20 h
  MRT0-∞: 1.7 ± 0.21 h
  Tmax: 0.66 ± 0.23 h
  V2/F: 18.1 ± 6.08 L/kg
  t1/2: 1.4 ± 0.32 h
[5]; gavage 5 mg/kg, Total
  AUC0-t: 727 ± 231 ng·h/mL
  AUC0-∞: 730 ± 231 ng·h/mL
  Cl/F: 126 ± 41.7 mL/min/kg
  Cmax: 433 ± 181 ng/mL
  MRT0-t: 1.6 ± 0.26 h
  MRT0-∞: 1.7 ± 0.28 h
  Tmax: 0.62 ± 0.24 h
  V2/F: 16.0 ± 6.37 L/kg
  t1/2: 1.5 ± 0.27 h
[5]; gavage 10 mg/kg, Female
  AUC0-t: 2060 ± 783 ng·h/mL
  AUC0-∞: 1830 ng·h/mL
  Cl/F: 92.3 mL/min/kg
  Cmax: 1120 ± 385 ng/mL
  MRT0-t: 1.6 ± 0.27 h
  MRT0-∞: 1.6 h
  Tmax: 0.75 ± 0.29 h
  V2/F: 20.1 L/kg
  t1/2: 2.6 h
[5]; gavage 10 mg/kg, Male
  AUC0-t: 1460 ± 324 ng·h/mL
  AUC0-∞: 1460 ± 324 ng·h/mL
  Cl/F: 118 ± 26.5 mL/min/kg
  Cmax: 934 ± 299 ng/mL
  MRT0-t: 1.6 ± 0.24 h
  MRT0-∞: 1.7 ± 0.20 h
  Tmax: 0.63 ± 0.25 h
  V2/F: 46.9 ± 24.6 L/kg
  t1/2: 4.5 ± 1.8 h
[5]; gavage 10 mg/kg, Total
  AUC0-t: 1760 ± 642 ng·h/mL
  AUC0-∞: 1590 ± 346 ng·h/mL
  Cl/F: 110 ± 25.5 mL/min/kg
  Cmax: 1030 ± 335 ng/mL
  MRT0-t: 1.6 ± 0.24 h
  MRT0-∞: 1.7 ± 0.26 h
  Tmax: 0.69 ± 0.26 h
  V2/F: 38.0 ± 23.6 L/kg
  t1/2: 3.9 ± 1.8 h
[5]; gavage 20 mg/kg, Female
  AUC0-t: 3840 ± 446 ng·h/mL
  AUC0-∞ (h·ng/mL): 3850+446 h·ng/mL
  Cl/F: 87.5 ± 10.2 mL/min/kg
  Cmax: 2170 ± 380 ng/mL
  MRT0-t (h): 1.7+0.19 h
  MRT0-∞: 1.8 ± 0.18 h
  Tmax: 0.50 ± 0.0 h
  V2/F: 30.8 ± 5.67 L/kg
  t1/2: 4.0 ± 0.35 h
[5]; gavage 20 mg/kg, Male
  AUC0-t (h·ng/mL): 4650+2440 h·ng/mL
  AUC0-∞: 4660 ± 2440 ng·h/mL
  Cl/F: 83 ± 29.8 mL/min/kg
  Cmax: 2230 ± 531 ng/mL
  MRT0-t: 1.8 ± 0.33 h
  MRT0-∞: 1.8 ± 0.32 h
  Tmax: 0.88 ± 0.25 h
  V2/F: 26.6 ± 17.0 L/kg
  t1/2: 3.7 ± 1.7 h
[5]; gavage 20 mg/kg, Total
  AUC0-t: 4250 ± 1680 ng·h/mL
  AUC0-∞: 4250 ± 1680 ng·h/mL
  Cl/F: 85.3 ± 20.8 mL/min/kg
  Cmax: 2200 ± 429 ng/mL
  MRT0-t: 1.8 ± 0.25 h
  MRT0-∞: 1.8 ± 0.25 h
  Tmax: 0.69 ± 0.26 h
  V2/F: 28.7 ± 11.9 L/kg
  t1/2: 3.9 ± 1.2 h
[2]; level of compound V after oral 2.5 mg/kg Form I, 2.5 mg/kg
  Blood drug level: 190.1 ng/mL
[2]; level of compound V after oral 2.5 mg/kg Form I, listed as Crystal form I, 2.5 mg/kg
  Blood drug level: 190.1 ± 62.9 ng/mL
[2]; level of compound V after oral 5 mg/kg Form I, 5 mg/kg
  Blood drug level: 181.3 ng/mL
[2]; level of compound V after oral 10 mg/kg Form I, 10 mg/kg
  Blood drug level: 341.9 ng/mL
[2]; level of compound V after oral 10 mg/kg Form I, listed as Crystal form I, 10 mg/kg
  Blood drug level: 341.9 ± 46.4 ng/mL
[2]; level of compound V after oral 20 mg/kg Form I, 20 mg/kg
  Blood drug level: 609.7 ng/mL
[2]; level of compound V after oral 20 mg/kg Form I, listed as Crystal form I, 20 mg/kg
  Blood drug level: 609.7 ± 174.0 ng/mL

## CCCCCCOC(=O)NC(=N)c1ccc(CNC(=O)[C@@H]2CCCN2C(=O)[C@@H](CC(C)C)NCC(=O)OCC)cc1 [dihydrochloride]
Solubility determination
  aqueous solubility: excellent aqueous solubility
